This passage reports GI50 and TGI results from PubChem BioAssay (NCI).

Where “and” joins values, the source holds several entries; their conditions need not be identical. Identical values can stand only once.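 Exposure lasted 48 hours, with cells grown in 96-well plates and compounds tested at five concentrations. GI50: concentration for 50% inhibition of growth. At the TGI there is no net growth.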 Some results are limits rather than exact numbers.

One experiment concerns CCRF-CEM leukemia. As to the kind of experiment: NCI anticancer screen, dose series, 48 h.
Take `CC(=O)[CH-]C(=O)c1ccccc1.CC(=O)[CH-]C(=O)c1ccccc1.CN(C)c1ccc([O-])cc1.CN(C)c1ccc([O-])cc1.Cl.[Ti+4]`: the GI50 was 9.65 µM and the TGI was greater than 31.6 µM.
On to `CCCCCCCCCCCC(=O)OCCOCCOCCOCCOCCOCc1ccccc1`, for which the TGI was greater than 100 µM.
Turning to `CCCCCCCCCCCCCC(=O)OC(/C=C/C(C)C)C(O)C(O)C(OC)C(=O)NC1CCCCN(C)C1=O` (configuration not stated), the GI50 was greater than 49 µM; the TGI is 10.7 µM and > 49 µM.
The molecule `CCOC(=O)CCC1(C(=O)OCC)CCCCC1=O` (configuration not stated) had a TGI greater than 100 µM.
As to `COc1cc2c(cc1OCCCCN1CCN(CC(=O)Nc3ccc(Cl)cc3C(=O)c3ccccc3Cl)CC1)N=CC1CCCN1C2=O` (configuration not stated), the GI50 was 0.159 µM and the TGI was 0.434 µM.

The test system of the next experiment is SN12C renal. The experiment is described as follows: NCI anticancer screen, dose series, 48 h.
For the molecule `Cc1c(C(=O)CC(=O)C(=O)Nc2ccccc2C(F)(F)F)[n+](=O)c2ccccc2n1[O-]`, the TGI was 54.4 µM.
On the same count and under the same terms, as for `C1=C2/CC[C@H](Sc3ccccc3)C2C2(CCCCC/1)OCCO2` (some centres not stated), the figure is greater than 100 µM; as for `O=C(CCc1nc(=S)[nH][nH]1)Nc1cc(Cl)c(Cl)cc1Cl`, greater than 100 µM.
Same read-out and setting: then `CC1(C)C(=O)/C=C\C(=O)C(C)(C)C2=CC=C(O2)C(C)(C)C(=O)/C=C\C(=O)C(C)(C)C2=CC=C1O2`, with greater than 100 µM.
Still for that read-out and setting: then `Cc1cc(NS(=O)(=O)c2ccc(Nc3c4ccccc4nc4c(C(=O)N5CCN(CCOS(C)(=O)=O)CC5)cccc34)cc2)no1`, with greater than 100 µM.
For the molecule `CC(=O)[CH-]C(=O)c1ccccc1.CC(=O)[CH-]C(=O)c1ccccc1.CN(C)c1ccc([O-])cc1.CN(C)c1ccc([O-])cc1.Cl.[Ti+4]`, the GI50 is 23.7 µM and the TGI was greater than 31.6 µM.
In turn, `CCCCCCCCCCCC(=O)OCCOCCOCCOCCOCCOCc1ccccc1` came in with a TGI greater than 100 µM.
On to `COc1cc2c(cc1OCCCCN1CCN(CC(=O)Nc3ccc(Cl)cc3C(=O)c3ccccc3Cl)CC1)N=CC1CCCN1C2=O` (configuration not stated), for which the GI50 is 0.297 µM and the TGI turned out to be 1.14 µM.

The next experiment has as its system M14 melanoma. The experiment is described as follows: NCI anticancer screen, dose series, 48 h.
The molecule `Cc1c(C(=O)CC(=O)C(=O)Nc2ccccc2C(F)(F)F)[n+](=O)c2ccccc2n1[O-]` came in with a TGI of 39 µM.
As to `O=C(CCc1nc(=S)[nH][nH]1)Nc1cc(Cl)c(Cl)cc1Cl`, the TGI is greater than 100 µM.
On the same count and under the same terms, as for `Cc1cc(NS(=O)(=O)c2ccc(Nc3c4ccccc4nc4c(C(=O)N5CCN(CCOS(C)(=O)=O)CC5)cccc34)cc2)no1`, the figure is greater than 100 µM.
Same read-out and setting: as for `CCn1c(C)nn2c(=O)c3ccccc3nc2c1=O`, the figure is greater than 100 µM.
Turning to `CC(=O)[CH-]C(=O)c1ccccc1.CC(=O)[CH-]C(=O)c1ccccc1.CN(C)c1ccc([O-])cc1.CN(C)c1ccc([O-])cc1.Cl.[Ti+4]`, the GI50 is 17.5 µM and the TGI was greater than 31.6 µM.
In turn, `CCCCCCCCCCCC(=O)OCCOCCOCCOCCOCCOCc1ccccc1` returned a TGI greater than 100 µM.
For the molecule `CCCCCCCCCCCCCC(=O)OC(/C=C/C(C)C)C(O)C(O)C(OC)C(=O)NC1CCCCN(C)C1=O` (configuration not stated), the GI50 was greater than 49 µM; the TGI is 6.09 µM and > 49 µM.

The subject of a further experiment is UACC-62 melanoma. The experiment is described as follows: NCI anticancer screen, dose series, 48 h.
Turning to `Cc1c(C(=O)CC(=O)C(=O)Nc2ccccc2C(F)(F)F)[n+](=O)c2ccccc2n1[O-]`, the TGI worked out at 34.4 µM.
Same read-out and setting: then `C1=C2/CC[C@H](Sc3ccccc3)C2C2(CCCCC/1)OCCO2` (some centres not stated), with 64.5 µM.
The same measure, in the same setting: then `O=C(CCc1nc(=S)[nH][nH]1)Nc1cc(Cl)c(Cl)cc1Cl`, with greater than 100 µM.
`Cc1cc(NS(=O)(=O)c2ccc(Nc3c4ccccc4nc4c(C(=O)N5CCN(CCOS(C)(=O)=O)CC5)cccc34)cc2)no1`: the TGI was greater than 100 µM.
The same measure, in the same setting: as for `CCn1c(C)nn2c(=O)c3ccccc3nc2c1=O`, the figure is greater than 100 µM.
Turning to `CC(=O)[CH-]C(=O)c1ccccc1.CC(=O)[CH-]C(=O)c1ccccc1.CN(C)c1ccc([O-])cc1.CN(C)c1ccc([O-])cc1.Cl.[Ti+4]`, the GI50 is greater than 31.6 µM and the TGI is greater than 31.6 µM.
The molecule `CCCCCCCCCCCC(=O)OCCOCCOCCOCCOCCOCc1ccccc1` returned a TGI greater than 100 µM.
Still for that read-out and setting: as for `CCCCCCCCCCCCCC(=O)OC(/C=C/C(C)C)C(O)C(O)C(OC)C(=O)NC1CCCCN(C)C1=O` (configuration not stated), the figure is 6.15 µM and > 49 µM.
Turning to `COc1cc2c(cc1OCCCCN1CCN(CC(=O)Nc3ccc(Cl)cc3C(=O)c3ccccc3Cl)CC1)N=CC1CCCN1C2=O` (configuration not stated), the GI50 was 0.186 µM and the TGI was determined as 0.355 µM.

The test system of the next experiment is K-562 leukemia. The experiment is described as follows: NCI anticancer screen, dose series, 48 h.
In turn, `Cc1c(C(=O)CC(=O)C(=O)Nc2ccccc2C(F)(F)F)[n+](=O)c2ccccc2n1[O-]` had a TGI of 93.2 µM.
Still for that read-out and setting: then `C1=C2/CC[C@H](Sc3ccccc3)C2C2(CCCCC/1)OCCO2` (some centres not stated), with greater than 100 µM; and `O=C(CCc1nc(=S)[nH][nH]1)Nc1cc(Cl)c(Cl)cc1Cl`, with greater than 100 µM; and `CC1(C)C(=O)/C=C\C(=O)C(C)(C)C2=CC=C(O2)C(C)(C)C(=O)/C=C\C(=O)C(C)(C)C2=CC=C1O2`, with greater than 100 µM.
Still for that read-out and setting: then `Cc1cc(NS(=O)(=O)c2ccc(Nc3c4ccccc4nc4c(C(=O)N5CCN(CCOS(C)(=O)=O)CC5)cccc34)cc2)no1`, with greater than 100 µM; and `CCn1c(C)nn2c(=O)c3ccccc3nc2c1=O`, with greater than 100 µM.
With `CC(=O)[CH-]C(=O)c1ccccc1.CC(=O)[CH-]C(=O)c1ccccc1.CN(C)c1ccc([O-])cc1.CN(C)c1ccc([O-])cc1.Cl.[Ti+4]`, the GI50 was 9.89 µM and the TGI was greater than 31.6 µM.
Consider `CCCCCCCCCCCC(=O)OCCOCCOCCOCCOCCOCc1ccccc1`, for which the TGI is greater than 100 µM.
With `CCCCCCCCCCCCCC(=O)OC(/C=C/C(C)C)C(O)C(O)C(OC)C(=O)NC1CCCCN(C)C1=O` (configuration not stated), the GI50 was greater than 49 µM; the TGI was 13.4 µM and > 49 µM.
In turn, `CCOC(=O)CCC1(C(=O)OCC)CCCCC1=O` (configuration not stated) displayed a TGI greater than 100 µM.
For `COc1cc2c(cc1OCCCCN1CCN(CC(=O)Nc3ccc(Cl)cc3C(=O)c3ccccc3Cl)CC1)N=CC1CCCN1C2=O` (configuration not stated), the GI50 was 0.208 µM and the TGI amounted to 2.82 µM.
